Assay results published in patent US20230091047A1 (priority 2019, published 2023).
Where two headings read alike, the source gives them in different places.

Experiments:
[1] = tested on: HBV (HepG2.117 cell line, inducibly HBV producing); assay: Anti-HBV activity: intracellular HBV DNA by real-time PCR in HepG2.117 cells after 3 days of treatment; format: cell-based, hepatitis B virus
How it was run: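 HepG2.117 cells replicate HBV under Tet-off control, without doxycycline. After induction of replication, cells were treated with serially diluted compound for 3 days, and intracellular HBV DNA was then quantified by real-time PCR with an HBV-specific primer set and probe.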

in vitro = format: cell-based; settings: human, HepG2 or HepG2.117 cells, mean value
How it was run: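 Luminescent ATP quantitation served as the viability endpoint following a 3- or 4-day incubation with test compounds.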

[2] = Hepatitis B virus, HepG2.117, 72 h, HepG2.117 cells, 3 days of treatment, intracellular HBV DNA by real-time PCR; mean value; read-out: EC50 (μM, mean value)
[3] = 3-days incubation (unmarked values), ATPlite
[4] = Hepatitis B virus, HepG2.117, 72 h, HepG2.117 cells, intracellular HBV DNA by real-time PCR, 3 days of treatment, mean value; read-out: EC50 (μM, mean value)
[5] = ATPlite, 3-days incubation (not marked with *)
[6] = HepG2.117 cells, intracellular HBV DNA by real-time PCR, 3 days of treatment, mean value; read-out: EC50 (μM, mean value)

Row | Compound | EC50 [1, 2] [µM] | CC50 at 3 days (in vitro; [3]) [µM] | EC50 [1, 4] [µM] | CC50 at 3 days (in vitro; [5]) [µM] | also measured
1 | CNC(=O)[C@H]1CC[C@@H](n2c(NC(C)C)nc3c(c2=O)C[C@@H](C)N(C(=O)c2ccc(Cl)c(Cl)c2)C3)CC1 [Compound C280, cis-4-[(6R)-7-(3,4-dichlorobenzoyl)-6-methyl-4-oxo-2-[(propan-2-yl)amino]-5,6,7,8-tetrahydropyrido[3,4-d]pyrimidin-3(4H)-yl]-N-methylcyclohexane-1-carboxamide] | 0.1 | 24.6 |  |  | 
2 | COc1cc(C(=O)NC2CC2)ccc1-n1c(NC(C)C)nc2c(c1=O)C[C@@H](C)N(C(=O)c1ccc(Cl)c(C(F)(F)F)c1)C2 (single isomer, unassigned) [Compound C678a] |  |  | 0.04 | 43 | 
3 | CNC(=O)c1ccc(-n2c(N[C@H]3C[C@@H]3c3ccc(OC)cc3)nc3c(c2=O)C[C@@H](C)N(C(=O)c2ccc(Cl)c(Cl)c2)C3)cc1 [Compound C452] |  |  |  | > 50 | EC50 [1, 6]: 2.91 µM
4 | CNC(=O)c1ccc(-n2c(NC(C)c3ccc(C(F)(F)F)s3)nc3c(c2=O)C[C@@H](C)N(C(=O)c2ccc(Cl)c(Cl)c2)C3)cc1 (stereo partly shown) [Compound C596] |  |  | 0.4 | 25.5 | 
5 | CC[C@@H](C)Oc1nc2c(c(=O)n1-c1ccc(C(=O)NC)cc1)C[C@@H](C)N(C(=O)c1ccc(Cl)c(Cl)c1)C2 [Compound C397, 4-(R-2-(R-sec-butoxy)-7-(3,4-dichlorobenzoyl)-6-methyl-4-oxo-5,6,7,8-tetrahydropyrido[3,4-d]pyrimidin-3(4H)-yl)-N-methylbenzamide] |  |  | 0.05 | 25.2 | 
6 | CNC(=O)c1ccc(-n2c(NC(C)(C)C)nc3c(c2=O)C[C@@H](C)N(C(=O)c2ccc(Cl)c(C(F)(F)F)c2)C3)c(Cl)c1 (single isomer, unassigned) [Compound C677a] | 0.02 |  |  |  | CC50 at 3 days (in vitro; 3-days incubation (unmarked values), ATPlite viability): > 50 µM
7 | CNC(=O)c1ccc(-n2c(NC34C5C6C7C5C3C7C64)nc3c(c2=O)C[C@@H](C)N(C(=O)c2ccc(Cl)c(Cl)c2)C3)cc1 (stereo partly shown) [Compound C461] |  |  | 1.45 | > 50 | 
8 | CNC(=O)c1ccc(-n2c(N[C@@H]3CCO[C@H]3c3ccccc3)nc3c(c2=O)C[C@@H](C)N(C(=O)c2ccc(Cl)c(Cl)c2)C3)cc1 [Compound C466] |  |  | 1.43 | 31.5 | 
9 | COC(=O)C1COCCN1c1ccc(-n2c(NC(C)C)nc3c(c2=O)CCN(C(=O)c2ccc(Cl)c(Cl)c2)C3)cc1 (stereo not shown) [Compound C179, methyl 4-{4-[7-(3,4-dichlorobenzoyl)-4-oxo-2-[(propan-2-yl)amino]-5,6,7,8-tetrahydropyrido[3,4-d]pyrimidin-3(4H)-yl]phenyl}morpholine-3-carboxylate] | 0.72 | 19.3 |  |  | 
10 | COc1ccc(CNc2nc3c(c(=O)n2-c2cc(OC)cc(S(C)(=O)=O)c2)CCN(C(=O)c2ccc(Cl)c(Cl)c2)C3)cc1 [Compound C87, 7-(3,4-dichlorobenzoyl)-3-[3-(methanesulfonyl)-5-methoxyphenyl]-2-{[(4-methoxyphenyl)methyl]amino}-5,6,7,8-tetrahydropyrido[3,4-d]pyrimidin-4(3H)-one] | 1.55 | > 50 |  |  | 
11 | CNC(=O)c1ccc(-n2c(NC(C)Cn3cnnc3)nc3c(c2=O)C[C@@H](C)N(C(=O)c2ccc(Cl)c(Cl)c2)C3)cc1 (stereo partly shown) [Compound C481] |  |  | > 25 | > 50 | 
12 | CNC(=O)c1ccc(-n2c(NC(C)c3ccccc3OC(F)F)nc3c(c2=O)C[C@@H](C)N(C(=O)c2ccc(Cl)c(Cl)c2)C3)cc1 (stereo partly shown) [Compound C438] |  |  | 0.4 | 31.2 | 
13 | CC(C)Nc1nc2c(c(=O)n1-c1cccc3c1CNC3=O)C[C@@H](C)N(C(=O)c1ccc(Cl)c(Cl)c1)C2 [Compound C323, (6R)-7-(3,4-dichlorobenzoyl)-6-methyl-3-(1-oxo-2,3-dihydro-1H-isoindol-4-yl)-2-[(propan-2-yl)amino]-5,6,7,8-tetrahydropyrido[3,4-d]pyrimidin-4(3H)-one] | 0.35 | > 50 |  |  | 
14 | CNC(=O)c1ccc(-n2c(NC(C)C)nc3c(c2=O)C[C@@H](C)N(C(=O)c2cc4c(Br)cc(Cl)cc4[nH]2)C3)cc1 [Compound C576] |  |  | 0.05 | > 50 | 
15 | Cc1ccncc1-n1c(NC(C)C)nc2c(c1=O)CCN(C(=O)c1ccc(Cl)c(Cl)c1)C2 [Compound C114, 7-(3,4-dichlorobenzoyl)-3-(4-methylpyridin-3-yl)-2-[(propan-2-yl)amino]-5,6,7,8-tetrahydropyrido[3,4-d]pyrimidin-4(3H)-one] | 1.78 | > 50 |  |  | 
16 | CNC(=O)c1ccc(-n2c(N[C@H](C)c3ccc(OC(F)F)cc3)nc3c(c2=O)C[C@@H](C)N(C(=O)c2ccc(Cl)c(Cl)c2)C3)cc1 [Compound C411a] |  |  |  | 47.4 | EC50 [1, 6]: 1.02 µM
17 | CNC(=O)c1ccc(-n2c(NCc3cccc(-c4nnc[nH]4)c3)nc3c(c2=O)C[C@@H](C)N(C(=O)c2ccc(Cl)c(Cl)c2)C3)cc1 [Compound C597] |  |  | 9.49 | > 50 | 
18 | CNC(=O)c1ccc(-n2c(NC3COC(C)(C)C3)nc3c(c2=O)C[C@@H](C)N(C(=O)c2ccc(Cl)c(Cl)c2)C3)cc1 (stereo partly shown) [Compound C480] |  |  | 10.3 | > 50 | 
19 | COc1ccc(CNc2nc3c(c(=O)n2C2CCCCC2)CCN(C(=O)c2ccc(Cl)c(Cl)c2)C3)cc1 [Compound C64, 3-cyclohexyl-7-(3,4-dichlorobenzoyl)-2-{[(4-methoxyphenyl)methyl]amino}-5,6,7,8-tetrahydropyrido[3,4-d]pyrimidin-4(3H)-one] | 8.91 | > 50 |  |  | 
20 | CNC(=O)c1ccc(-n2c(N(C)Cc3nc(C)n[nH]3)nc3c(c2=O)C[C@@H](C)N(C(=O)c2ccc(Cl)c(Cl)c2)C3)cc1 [Compound C595] |  |  | > 25 | > 50 | 
21 | CNC(=O)c1cnc(-n2c(NC)nc3c(c2=O)C[C@@H](C)N(C(=O)c2ccc(Cl)c(Cl)c2)C3)cn1 [Compound C287, 5-[(6R)-7-(3,4-dichlorobenzoyl)-6-methyl-2-(methylamino)-4-oxo-5,6,7,8-tetrahydropyrido[3,4-d]pyrimidin-3(4H)-yl]-N-methylpyrazine-2-carboxamide] | 0.75 | > 50 |  |  | 
22 | CNC(=O)c1ccc(-n2c(N[C@H](C)c3ccc(OC)cc3)nc3c(c2=O)C[C@@H](C)N(C(=O)c2ccc(Cl)c(Cl)c2)C3)cc1 (single isomer, unassigned) [Compound C347a] |  |  | 0.1 | 35.1 | 
23 | CNC(=O)c1ccc(-n2c(Nc3ccnn3C)nc3c(c2=O)C[C@@H](C)N(C(=O)c2ccc(Cl)c(Cl)c2)C3)cc1 [Compound C389] |  |  | > 10 | > 50 | 
24 | CC(C)Nc1nc2c(c(=O)n1-c1ccncc1)CCN(C(=O)c1ccc(Cl)c(Cl)c1)C2 [Compound C122, 7-(3,4-dichlorobenzoyl)-2-[(propan-2-yl)amino]-3-(pyridin-4-yl)-5,6,7,8-tetrahydropyrido[3,4-d]pyrimidin-4(3H)-one] | 1.44 | > 50 |  |  | 
25 | CC(C)Nc1nc2c(c(=O)n1-c1ccc(-c3cncs3)cc1)CCN(C(=O)c1ccc(Cl)c(Cl)c1)C2 [Compound C188, 7-(3,4-dichlorobenzoyl)-2-[(propan-2-yl)amino]-3-[4-(1,3-thiazol-5-yl)phenyl]-5,6,7,8-tetrahydropyrido[3,4-d]pyrimidin-4(3H)-one] | 0.51 | > 50 |  |  | 
26 | CNC(=O)c1ccc(-n2c(NCc3cccnc3)nc3c(c2=O)C[C@@H](C)N(C(=O)c2ccc(Cl)c(Cl)c2)C3)cc1 [Compound C378] |  |  | 5.73 | > 50 | 
